Laboratory results: US10421761B2, “Compounds for kinase modulation, and indications therefor” (Plexxikon Inc., priority 2013, dated 2019)

Test system: B9 cells
Conditions: B9 cells

SMILES: CCCS(=O)(=O)Nc1ccc(F)c(C(=O)c2c[nH]c3ncc(-c4ccc(Cl)cc4)cc23)c1F [vemurafenib]
- probe 1455104_at response, Mxd1 (MAX dimerization protein 1) (Repl. 1): 2.60
- probe 1455241_at response, BC037703 (cDNA sequence BC037703) (Repl. 1): 0.44
- probe 1455299_at response, Vgll3 (vestigial like 3 (Drosophila)) (Repl. 1): 0.50
- probe 1455981_at response, Gm11263 /// Gm12242 /// Gm13654 /// Gm14138 /// Gm16406 /// Gm4796 /// Gm6476 /// Gm9143 /// LOC100043734 /// LOC236932 /// LOC623245 /// LOC639593 /// Rps6 (Repl. 1): 0.41
- probe 1456150_at response, Jhdm1d (jumonji C domain-containing histone demethylase 1 homolog D (S. cerevisiae)) (Repl. 1): 1.99
- probe 1456174_x_at response, Ndrg1 (N-myc downstream regulated gene 1) (Repl. 1): 1.92
- probe 1456248_at response, Lce3f /// LOC630971 (late cornified envelope 3F /// hypothetical protein LOC630971) (Repl. 1): 2.26
- probe 1456284_at response, Tmem171 (transmembrane protein 171) (Repl. 1): 2.10
- probe 1456321_at response, Nipal1 (NIPA-like domain containing 1) (Repl. 1): 3.42
- probe 1456725_x_at response, Ezr (ezrin) (Repl. 1): 0.48
- probe 1456874_at response, Flrt2 (fibronectin leucine rich transmembrane protein 2) (Repl. 1): 0.52
- probe 1457042_at response, AI256396 (EST AI256396) (Repl. 1): 0.48
- probe 1457568_at response, Hnrnpd (heterogeneous nuclear ribonucleoprotein D) (Repl. 1): 0.44
- probe 1457666_s_at response, Ifi202b (interferon activated gene 202B) (Repl. 1): 3.60
- probe 1460220_a_at response, Csf1 (colony stimulating factor 1 (macrophage)) (Repl. 1): 0.40
- probe 1460302_at response, Thbs1 (thrombospondin 1) (Repl. 1): 0.49
- probe 1460472_at response, Cdk3 (cyclin-dependent kinase 3) (Repl. 1): 1.91
- probe 1460521_a_at response, Obfc2a (oligonucleotide/oligosaccharide-binding fold containing 2A) (Repl. 1): 3.03
- probe 1460695_a_at response, 2010111I01Rik (RIKEN cDNA 2010111I01 gene) (Repl. 1): 0.51
- probe 1415828_a_at response, Serp1 (stress-associated endoplasmic reticulum protein 1) (Repl. 2): 1.88
- probe 1415936_at response, Bcar3 (breast cancer anti-estrogen resistance 3) (Repl. 2): 2.16
- probe 1416129_at response, Errfi1 (ERBB receptor feedback inhibitor 1) (Repl. 2): 3.11
- probe 1416246_a_at response, Coro1a (coronin, actin binding protein 1A) (Repl. 2): 2.19
- probe 1416325_at response, Crisp 1 (cysteine-rich secretory protein 1) (Repl. 2): 4.39
- probe 1416401_at response, Cd82 (CD82 antigen) (Repl. 2): 2.64
- probe 1416488_at response, Ccng2 (cyclin G2) (Repl. 2): 2.31
- probe 1416527_at response, Rab32 (RAB32, member RAS oncogene family) (Repl. 2): 0.48
- probe 1417065_at response, Egr1 (early growth response 1) (Repl. 2): 4.50
- probe 1417130_s_at response, Angptl4 (angiopoietin-like 4) (Repl. 2): 2.79
- probe 1417328_at response, Ercc1 (excision repair cross-complementing rodent repair deficiency, complementation group 1) (Repl. 2): 2.01
- probe 1417488_at response, Fosl1 (fos-like antigen 1) (Repl. 2): 2.05
- probe 1417494_a_at response, Cp (ceruloplasmin) (Repl. 2): 0.43
- probe 1417495_x_at response, Cp (ceruloplasmin) (Repl. 2): 0.51
- probe 1417533_a_at response, Itgb5 (integrin beta 5) (Repl. 2): 0.51
- probe 1417625_s_at response, Cxcr7 (chemokine (C-X-C motif) receptor 7) (Repl. 2): 2.03
- probe 1417677_at response, Opn3 (opsin 3) (Repl. 2): 2.39
- probe 1417812_a_at response, Lamb3 (laminin, beta 3) (Repl. 2): 2.38
- probe 1417837_at response, Phlda2 (pleckstrin homology-like domain, family A, member 2) (Repl. 2): 2.11
- probe 1417902_at response, Slc19a2 (solute carrier family 19 (thiamine transporter), member 2) (Repl. 2): 2.07
- probe 1417962_s_at response, Ghr (growth hormone receptor) (Repl. 2): 2.14
- probe 1418349_at response, Hbegf (heparin-binding EGF-like growth factor) (Repl. 2): 2.70
- probe 1418350_at response, Hbegf (heparin-binding EGF-like growth factor) (Repl. 2): 2.46
- probe 1418538_at response, Kdelr3 (KDEL (Lys-Asp-Glu-Leu) endoplasmic reticulum protein retention receptor 3) (Repl. 2): 2.02
- probe 1418539_a_at response, Ptpre (protein tyrosine phosphatase, receptor type, E) (Repl. 2): 1.89
- probe 1419149_at response, Serpine1 (serine (or cysteine) peptidase inhibitor, clade E, member 1) (Repl. 2): 1.99
- probe 1419188_s_at response, Ccl27a /// Gm13306 (chemokine (C-C motif) ligand 27A /// predicted gene 13306) (Repl. 2): 2.36
- probe 1419317_x_at response, Lce3c (late cornified envelope 3C) (Repl. 2): 2.58
- probe 1419322_at response, Fgd6 (FYVE, RhoGEF and PH domain containing 6) (Repl. 2): 2.45
- probe 1419529_at response, Il23a (interleukin 23, alpha subunit p19) (Repl. 2): 2.53
- probe 1419671_a_at response, Il17rc (interleukin 17 receptor C) (Repl. 2): 0.45
- probe 1419722_at response, Klk8 (kallikrein related-peptidase 8) (Repl. 2): 1.94
- probe 1419816_s_at response, Errfi1 (ERBB receptor feedback inhibitor 1) (Repl. 2): 3.39
- probe 1420352_at response, Prss22 (protease, serine, 22) (Repl. 2): 3.13
- probe 1420380_at response, Cc12 (chemokine (C-C motif) ligand 2) (Repl. 2): 0.41
- probe 1420407_at response, Ltb4r1 (leukotriene B4 receptor 1) (Repl. 2): 2.24
- probe 1420450_at response, Mmp10 (matrix metallopeptidase 10) (Repl. 2): 3.93
- probe 1420537_at response, Kctd4 (potassium channel tetramerisation domain containing 4) (Repl. 2): 2.58
- probe 1420760_s_at response, Ndrg1 (N-myc downstream regulated gene 1) (Repl. 2): 2.04
- probe 1420913_at response, Slco2a1 (solute carrier organic anion transporter family, member 2a1) (Repl. 2): 1.96
- probe 1420955_at response, Vsnl1 (visinin-like 1) (Repl. 2): 0.47
- probe 1421134_at response, Areg (amphiregulin) (Repl. 2): 4.16
- probe 1421269_at response, Ugcg (UDP-glucose ceramide glucosyltransferase) (Repl. 2): 2.16
- probe 1421279_at response, Lamc2 (laminin, gamma 2) (Repl. 2): 2.11
- probe 1421403_at response, Pi15 (peptidase inhibitor 15) (Repl. 2): 1.96
- probe 1421551_s_at response, Ifi202b (interferon activated gene 202B) (Repl. 2): 3.42
- probe 1421668_x_at response, Speer3 (spermatogenesis associated glutamate (E)-rich protein 3) (Repl. 2): 2.60
- probe 1421679_a_at response, Cdkn1a (cyclin-dependent kinase inhibitor 1A (P21)) (Repl. 2): 4.13
- probe 1421888_x_at response, Aplp2 (amyloid beta (A4) precursor-like protein 2) (Repl. 2): 0.63
- probe 1421943_at response, Tgfa (transforming growth factor alpha) (Repl. 2): 1.92
- probe 1422028_a_at response, Ets1 (E26 avian leukemia oncogene 1, 5′ domain) (Repl. 2): 1.91
- probe 1422101_at response, Tnfrsf23 (tumor necrosis factor receptor superfamily, member 23) (Repl. 2): 1.93
- probe 1422138_at response, Plau (plasminogen activator, urokinase) (Repl. 2): 2.19
- probe 1422139_at response, Plau (plasminogen activator, urokinase) (Repl. 2): 2.82
- probe 1422222_at response, Ivl (involucrin) (Repl. 2): 2.27
- probe 1422240_s_at response, Sprr2h (small proline-rich protein 2H) (Repl. 2): 1.98
- probe 1422273_at response, Mmp1b (matrix metallopeptidase 1b (interstitial collagenase)) (Repl. 2): 3.17
- probe 1422324_a_at response, Pthlh (parathyroid hormone-like peptide) (Repl. 2): 2.28
- probe 1422537_a_at response, Id2 (inhibitor of DNA binding 2) (Repl. 2): 0.49
- probe 1422771_at response, Smad6 (MAD homolog 6 (Drosophila)) (Repl. 2): 0.47
- probe 1422924_at response, Tnfsf9 (tumor necrosis factor (ligand) superfamily, member 9) (Repl. 2): 1.94
- probe 1423017_a_at response, Il1rn (interleukin 1 receptor antagonist) (Repl. 2): 2.03
- probe 1423543_at response, Swap70 (SWA-70 protein) (Repl. 2): 1.95
- probe 1423597_at response, Atp8a1 (ATPase, aminophospholipid transporter (APLT), class I, type 8A, member 1) (Repl. 2): 1.88
- probe 1423635_at response, Bmp2 (bone morphogenetic protein 2) (Repl. 2): 2.23
- probe 1423690_s_at response, Gpsm1 (G-protein signalling modulator 1 (AGS3-like, C. elegans)) (Repl. 2): 3.20
- probe 1423933_a_at response, 1600029D21Rik (RIKEN cDNA 1600029D21 gene) (Repl. 2): 2.01
- probe 1424022_at response, Osgin1 (oxidative stress induced growth inhibitor 1) (Repl. 2): 1.92
- probe 1424090_at response, Sdcbp2 (syndecan binding protein (syntenin) 2) (Repl. 2): 4.46
- probe 1424306_at response, Elovl4 (elongation of very long chain fatty acids (FEN1/Elo2, SUR4/Elo3, yeast)-like 4) (Repl. 2): 2.35
- probe 1424383_at response, Tmem51 (transmembrane protein 51) (Repl. 2): 2.69
- probe 1424471_at response, Rapgef3 (Rap guanine nucleotide exchange factor (GEF) 3) (Repl. 2): 1.89
- probe 1424638_at response, Cdkn1a (cyclin-dependent kinase inhibitor 1A (P21)) (Repl. 2): 2.67
- probe 1424783_a_at response, Ugt1a1 /// Ugt1a10 /// Ugt1a2 /// Ugt1a5 /// Ugt1a6a /// Ugt1a6b /// Ugt1aTc /// Ugt1a9 (UDP glucuronosyltransferase 1 family) (Repl. 2): 0.43
- probe 1425452_s_at response, Fam84a (family with sequence similarity 84, member A) (Repl. 2): 2.53
- probe 1425660_at response, Btbd3 (BTB (POZ) domain containing 3) (Repl. 2): 1.92
- probe 1426037_a_at response, Rgs16 (regulator of G-protein signaling 16) (Repl. 2): 2.93
- probe 1426181_a_at response, I124 (interleukin 24) (Repl. 2): 4.76
- probe 1426260_a_at response, Ugt1a1 /// Ugt1a10 /// Ugt1a2 /// Ugt1a5 /// Ugt1a6a /// Ugt1a6b /// Ugt1aTc /// Ugt1a9 (UDP glucuronosyltransferase 1 family) (Repl. 2): 0.45
- probe 1426300_at response, Alcam (activated leukocyte cell adhesion molecule) (Repl. 2): 2.44
- probe 1426306_a_at response, LOC100046560 /// Maged2 (similar to melanoma antigen family D, 2 /// melanoma antigen, family D, 2) (Repl. 2): 1.87
- probe 1426708_at response, Antxr2 (anthrax toxin receptor 2) (Repl. 2): 2.15
- probe 1426806_at response, Obfc2a (oligonucleotide/oligosaccharide-binding fold containing 2A) (Repl. 2): 2.02
- probe 1426848_at response, LOC100047481 /// Sec24b (similar to SEC24 related gene family, member B (S. cerevisiae) /// Sec24 related gene family, member B (S. cerevisiae)) (Repl. 2): 0.75
- probe 1426972_at response, Sec24d (Sec24 related gene family, member D (S. cerevisiae)) (Repl. 2): 2.26
- probe 1427278_at response, Clip4 (CAP-GLY domain containing linker protein family, member 4) (Repl. 2): 2.03
- probe 1427364_a_at response, Odc1 (ornithine decarboxylase, structural 1) (Repl. 2): 2.62
- probe 1427512_a_at response, Lama3 (laminin, alpha 3) (Repl. 2): 2.47
- probe 1427527_a_at response, Pthlh (parathyroid hormone-like peptide) (Repl. 2): 2.37
- probe 1427885_at response, Pold4 (polymerase (DNA-directed), delta 4) (Repl. 2): 2.27
- probe 1428114_at response, Slc14a1 (solute carrier family 14 (urea transporter), member 1) (Repl. 2): 2.47
- probe 1428195_at response, Ahcyl2 (S-adenosylhomocysteine hydrolase-like 2) (Repl. 2): 2.06
- probe 1428228_at response, Pgm3 (phosphoglucomutase 3) (Repl. 2): 2.13
- probe 1428419_at response, 5430411K18Rik (RIKEN cDNA 5430411K18 gene) (Repl. 2): 2.28
- probe 1428851_at response, 1300014I06Rik (RIKEN cDNA 1300014I06 gene) (Repl. 2): 2.01
- probe 1429700_at response, 3110040M04Rik (RIKEN cDNA 3110040M04 gene) (Repl. 2): 2.47
- probe 1429844_at response, 2310043J07Rik (RIKEN cDNA 2310043J07 gene) (Repl. 2): 0.53
- probe 1430010_at response, Ncapd2 (non-SMC condensin I complex, subunit D2) (Repl. 2): 0.49
- probe 1430567_at response, Spink5 (serine peptidase inhibitor, Kazal type 5) (Repl. 2): 0.53
